This series is described as follows: gradient 5% acetonitrile 3 min, to 50% in 2 min, to 85% in 15 min, held 3 min, 100 µL/min. The settings on record: column: Zorbax Extend-C18 2.1 x 50 mm; eluents: water / acetonitrile, 0.1% formic acid. The method in brief:
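The mobile phases were water and acetonitrile, each with 0.1% formic acid, pumped at 100 μL/min through a Zorbax Extend-C18 column (2.1 × 50 mm, 1.8 μm). Pure standards were injected as mixtures of ~100 molecules and detected by a quadrupole time-of-flight mass spectrometer in positive and negative ionization mode. Retention time came from computationally picked adduct peaks, each inspected by hand.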
`CCc1c(C(=O)O)nnn1-c1ccc(C)cc1F` returned an RP-LC retention time of 737 s. Compound `COc1ccc(Cl)cc1NC(=O)Cc1csc2nc(-c3ccc(C)c(C)c3)cn12` had an RP-LC retention time of 985 s.

On to `O=C(NCCC1=CCCCC1)C1CC(=O)N(C2CCCCCC2)C1` (centres undefined), for which the RP-LC retention time was determined as 906 s. `O=C(Nc1ccnn1Cc1ccco1)c1cc(=O)c2cc(Cl)ccc2o1` returned an RP-LC retention time of 830 s. For the compound `Cc1ccc(C)c(N2CCN(c3ccnc(SCC(=O)NCCC(C)C)n3)CC2)c1`, the RP-LC retention time stood at 920 s.

As for `CC(NC(=O)Cc1ccc(Cl)cc1)C(=O)Nc1nc2ccccc2[nH]1` (centres undefined), the RP-LC retention time was 680 s. In the case of `Cc1ccc(-c2noc(Cc3nnc(-c4ccc(C)cc4)o3)n2)cc1`, the RP-LC retention time turned out to be 1120 s. With `COc1cc(OC)c(NC(=O)c2ncoc2-c2ccc(OC)c(OC)c2)cc1Cl`, the RP-LC retention time is 1140 s. Regarding `CCCNC(=O)C1=Cc2cc(Br)ccc2OC=C1`, the RP-LC retention time is 944 s. For the compound `Cn1c(N2CCCC(C(=O)NCc3cccc(F)c3)C2)cc(=O)n(C)c1=O` (centres undefined), the RP-LC retention time came out at 676 s. The result for `Cc1cc(N2CCCCC2)n2nc(CN3CCC4(CC3)OCCO4)nc2n1` reads 580 s; that for `CC1CCN(c2cc(-c3nc(-c4ccccc4)no3)c3ccccc3n2)CC1`, 1360 s; that for `COc1ccc(-c2nc(NCc3ccco3)ncc2C(=O)O)cc1`, 781 s. The value for `COC(=O)c1ccc2nc(NC(=O)c3cc(Cl)ccc3Cl)sc2c1` was 965 s. The compound `CCNC(=O)C1CCN(S(C)(=O)=O)c2cc(C)ccc2O1` (centres undefined) came in with an RP-LC retention time of 696 s. `CC(C)[C@H](NC(=O)CNC(=O)OC(C)(C)C)C(=O)N[C@H](C=O)C(C)C` displayed an RP-LC retention time of 749 s.

On to `CCOC(=O)c1c[nH]c2c(C(=O)OCC)cccc2c1=O`, for which the RP-LC retention time was 735 s.

`Cc1cccc(CNC(=O)C2(C)Cn3cnc(C(=O)NCc4ccccc4)c3C(=O)N2C2CC2)c1` (centres undefined) came in with an RP-LC retention time of 766 s. The value for `CS(=O)(=O)c1ccccc1C(=O)Nc1c2c(nn1-c1nc3ccccc3s1)CCC2` was 1060 s; that for `CSc1ccc(CNC(=O)C2CCCN(c3nccn4nc(-c5ccc(F)cc5)cc34)C2)cc1` (centres undefined) was 951 s. For the compound `CCn1nc(C(=O)Nc2nc3c(OC)ccc(C)c3s2)cc1C`, the RP-LC retention time came to 872 s.

`CSc1ccc(CNC(=O)c2cc3c(=O)n(Cc4ccccc4)ccc3nc2C)cc1` registered an RP-LC retention time of 870 s. Regarding `O=C(CN1CCCCC1c1nc(-c2ccc(F)cc2)no1)NC1CCCCC1` (centres undefined), the RP-LC retention time stood at 1150 s. The compound `O=C(NCc1ccc2c(c1)OCO2)c1ccc(S(=O)(=O)NCC2CCCO2)cc1` (centres undefined) showed an RP-LC retention time of 688 s. As to `COc1ccc2c(c1)CCc1sc(NC(=O)c3cc(Cl)ccc3OC)nc1-2`, the RP-LC retention time came to 1270 s. In turn, `CCCN1C(=O)COc2ccc(-c3noc(-c4ccc(F)c(F)c4)n3)cc21` registered an RP-LC retention time of 1270 s. `O=C(Cn1c(=O)c2cccn2c2ccc(F)cc21)N1CCN(c2ccccn2)CC1` had an RP-LC retention time of 605 s. The result for `Cc1cc2c(cc1S(=O)(=O)N1CCCC1C(=O)Nc1cccc(C)c1C)OCC(=O)N2` (centres undefined) reads 789 s; that for `Cc1oc(-c2ccc(NC(=O)Cc3ccccc3Cl)cc2)nc1Cn1cccn1`, 899 s. Compound `Cc1nc2cc3c(cc2n1CC(=O)NCc1ccc2c(c1)OCCCO2)OCCO3` returned an RP-LC retention time of 615 s.

`Cn1nc(-c2ccccc2)cc1C(=O)NCCn1nc(-c2ccc(Cl)cc2)ccc1=O`: the RP-LC retention time was 836 s. `Cc1ccc(NC(=O)N2CCc3nc(-c4ccccc4)ncc3C2)c(C)c1` had an RP-LC retention time of 952 s.

`O=C(Nc1ccccc1C(F)(F)F)N1CCC(N2CCN(Cc3cccc(F)c3)C(=O)C2=O)CC1` registered an RP-LC retention time of 829 s. For the compound `O=C(CN1C(=O)CSc2ccc(C(=O)N3CCCCC3)cc21)NCCC1=CCCCC1`, the RP-LC retention time is 870 s.

With `CN1C(=O)CCC2(CNC(=O)c3n[nH]c(=O)c4ccccc34)CCC=C12` (centres undefined), the RP-LC retention time worked out at 669 s.

`COCCCNC(=O)c1ccc(-c2ccc(Oc3ccccc3)nn2)cc1` displayed an RP-LC retention time of 757 s. In turn, `Cn1c(=O)oc2cc(-c3noc(CNS(=O)(=O)c4ccccc4)n3)ccc21` gave an RP-LC retention time of 805 s. With `CCc1noc(-c2cnc3nc(C)ccc3c2NCc2ccccc2OC)n1`, the RP-LC retention time was 724 s. In turn, `NC(=O)c1cc(=O)[nH]c2ccc(F)cc12` returned an RP-LC retention time of 558 s. The compound `CCOc1cc(C(=O)Nc2c(-c3ccc(F)cc3)nc3cc(C)ccn23)cc(OCC)c1OCC` yielded an RP-LC retention time of 819 s.

As for `O=C(c1cc(S(=O)(=O)N2CCCC(C(=O)N3CCOCC3)C2)c[nH]1)N1CCCCCC1` (centres undefined), the RP-LC retention time amounted to 696 s.

`Cc1cc2[nH]c(C(=O)Nc3ccc(Cl)cc3C)c(CN(C)C)c2s1` returned an RP-LC retention time of 704 s. With `CN(C)c1ccc(CNC(=O)c2ccc3c(c2)NC(=O)C2CCCCN32)cc1` (centres undefined), the RP-LC retention time is 617 s. Turning to `CCOC(=O)COc1ccccc1C1C(C(=O)OC)=C(C)NC2=C1C(=O)c1ccccc12` (centres undefined), the RP-LC retention time turned out to be 957 s.

Turning to `CCC(C)NC(=O)N1CCc2c(c(-c3nc(-c4ccc(F)cc4)no3)nn2C)C1` (centres undefined), the RP-LC retention time was 594 s. In turn, `O=C(c1ccc(CS(=O)c2ccc(Cl)cc2)o1)N1CCN(c2ccccn2)CC1` (centres undefined) had an RP-LC retention time of 582 s.

For `COC(=O)c1ncn2c1C(=O)N(Cc1ccccc1C)C(C)(C(=O)NCc1ccccc1)C2` (centres undefined), the RP-LC retention time is 735 s.

Turning to `Cc1noc([C@@H]2CN(S(=O)(=O)c3cccs3)C[C@H]2C(N)=O)n1`, the RP-LC retention time came out at 658 s.

As to `O=C(O)c1cc2cccc([N+](=O)[O-])c2[nH]1`, the RP-LC retention time was 746 s.

`O=C(Cc1c[nH]c2ccccc12)N1CCN(C(=O)c2cc(-c3ccncc3)n[nH]2)CC1` yielded an RP-LC retention time of 578 s.

With `COc1cc([N+](=O)[O-])ccc1NC(=O)c1cccc(Br)c1`, the RP-LC retention time came out at 1030 s.

Consider `CCc1nc(OCC(=O)NCc2cc(OC)ccc2OC)c2c(C)c(C)oc2n1`, for which the RP-LC retention time turned out to be 971 s. Consider `CCN1C(=O)C(C)(C(=O)Nc2ccc(C)cc2C)Oc2cccnc21` (centres undefined), for which the RP-LC retention time was determined as 744 s.

The compound `Cc1ccc(NC(=O)C2(c3ccc4c(c3)OC(F)(F)O4)CC2)nc1-c1cccc(C(=O)O)c1` registered an RP-LC retention time of 1130 s. The result for `O=C(CCc1nc(CSc2nnc(-c3ccccc3)o2)no1)Nc1ccccc1F` reads 870 s. The value for `Cc1cc(OCC(=O)N2CCCC(C)C2)nc(-c2ccc(Cl)cc2)n1` (centres undefined) was 1140 s; that for `CCCN1CCN(C(=O)CSc2nccnc2Sc2ccccc2)CC1` was 662 s. The value for `O=C(Cn1nc2c(SC3CCCCC3)nccn2c1=O)NC1CCCCC1` was 987 s.

As to `N#Cc1cccc(NC(=O)C2CCN(S(=O)(=O)c3cc(C(=O)N4CCCC4)cs3)CC2)c1`, the RP-LC retention time stood at 995 s. As for `CCN1CCCn2cc(S(=O)(=O)Nc3cccc(C)c3)cc2C1=O`, the RP-LC retention time was 724 s. In turn, `COc1ccc(-c2nc3sc(C(=O)N(C)C)c(C)n3c2NC(C)(C)C)cc1` yielded an RP-LC retention time of 742 s.

`CCCOc1nc2ccccc2nc1N1CCCC(C(=O)NCc2ccccc2Cl)C1` (centres undefined) had an RP-LC retention time of 1270 s. In turn, `O=C1CC(C(=O)N2CCc3ccccc3C2)CN1CCc1c[nH]c2ccc(F)cc12` (centres undefined) showed an RP-LC retention time of 804 s. With `CCC1CN(C(=O)Nc2cccc(OC)c2)c2ccccc2O1` (centres undefined), the RP-LC retention time came to 945 s. The value for `COc1c(C(=O)NCc2ccc3c(c2)OCO3)sc2cc(Cl)ccc12` was 1070 s; that for `CCSc1nnc(NC(=O)CNC(=O)c2c[nH]c3ccccc23)s1` was 669 s; that for `Cc1cc(C(=O)NCC23CCCC=C2NC(=O)CC3)nn1C` (centres undefined) was 641 s. `CCN(CC)C(=O)c1ccc(-c2nc3cc(NS(=O)(=O)c4ccccc4C)ccc3n2C)cc1` registered an RP-LC retention time of 694 s.

As for `Cc1cccc(NS(=O)(=O)c2cc(-c3[nH]ncc3C(=O)N(C)C)oc2C)c1`, the RP-LC retention time turned out to be 678 s.

For the compound `CC1CCN(S(=O)(=O)c2ccc3nn(Cc4cccc(C#N)c4)c(=O)n3c2)CC1`, the RP-LC retention time stood at 768 s. In turn, `CCC(C)NC(=O)C1COC2(CCN(C(=O)CC(C)(C)C)CC2)N1C(=O)c1ccc(OC)cc1` (centres undefined) registered an RP-LC retention time of 760 s. Take `CCCN1CCN(c2cc(C(=O)O)c3cc(NS(=O)(=O)c4ccc(CC)cc4)ccc3n2)CC1`: the RP-LC retention time was determined as 642 s. In the case of `COc1ccc(-c2nnc(-c3cccnc3NCc3ccc(N(C)C)cc3)o2)cc1`, the RP-LC retention time came out at 873 s. The result for `COc1cc2c(cc1CNC(=O)c1ccco1)OCCCO2` reads 755 s; that for `Cc1cc(C)c(S(=O)(=O)N2CCC(c3noc(-c4ccccc4C)n3)CC2)c(C)c1`, 1430 s. The value for `CCCCS(=O)(=O)c1cc2c(cc1NC(=O)c1ccccc1Br)n(C)c(=O)n2C` was 896 s; that for `CC(C)NC(=O)c1cc2c(=O)oc3ccccc3c2n1C` was 760 s. Regarding `CNC(=O)[C@@H]1CN(C(=O)Cc2c(C)noc2C)C[C@H]1c1nc(C)no1`, the RP-LC retention time turned out to be 599 s.

`CCN1CCN(CCCNc2ccc(-c3nc(-c4cccc(F)c4)no3)cn2)CC1` came in with an RP-LC retention time of 634 s.

These data come from the METLIN SMRT retention time set (Domingo-Almenara et al. 2019).
